One block for each molecule: values may come before it.
Tests used:
[1] = Visual assessment of glucagon formulations with different tonicity modifiers, 50° C. incubation; details: glucagon 1 mg/ml, 5 mM acetate, 0.075% benzethonium chloride, pH 5.5
Method: In some cases, the composition contained a specified concentration of an antioxidant. The effect of the nature and the concentration of the tonicity modifier on the physical stability (i.e., gel formation and/or aggregation) was determined by visual assessment following storage.
In the first experiment, the effects of mannitol and 1,2-propanediol as tonicity modifiers modifiers were compared at 50° C.
In another experiment, the effects of mannitol and glycerol as tonicity modifiers were compared at 50° C.
In another experiment, the effects of mannitol and trehalose as tonicity modifiers were compared at 50° C.

[2] = Stability of glucagon in surfactant solutions at room temperature (RP-HPLC, gel formation); type: physicochemical; details: for Changes in the native form of glucagon (RP-HPLC) / Size of the native glucagon peak (RP-HPLC): glucagon dissolved with the surfactant, incubation at room temperature for days
Source text: […]. In contrast, the size of the native peak diminished in the case of CHAPS to <10%) and in the case of TWEEN® 20 (to about 60%).
Formulating at pH>8 minimized the gel formation.

[3] = Visual assessment of glucagon formulations with and without phenol, 50° C. incubation; type: physicochemical; details: glucagon 1 mg/ml
Method: The pH of both formulations was adjusted to 5.5. […] The appearance of all formulations was noted shortly after preparation and then following storage at 50° C. for specified periods of time.

[4] = 0 days, 1.3 mM butylated hydroxytoluene
[5] = 6 weeks, 1.3 mM butylated hydroxytoluene
[6] = 6 days, 1.3 mM butylated hydroxytoluene
[7] = 50° C. for up to 6 weeks, 5 mM methionine

- Changes in the native form of glucagon (RP-HPLC) [2]: no significant changes
Molecule: CC(C)(C)CC(C)(C)c1ccc(OCCOCC[N+](C)(C)Cc2ccccc2)cc1 [Benzethonium chloride]

- Visual assessment (50° C. incubation), extent of visible precipitation [1, 4]: 1
- Visual assessment (50° C. incubation), extent of visible precipitation [1, 5]: 2
- Visual appearance after incubation ([1]; 50° C. for 6 weeks, 1.3 mM butylated hydroxytoluene): signs of precipitation
- Visual assessment (50° C. incubation), extent of visible precipitation [1, 6]: 1
Molecule: OCC(O)CO [Glycerol (250 mM), Glycerol]

- Visual assessment (50° C. incubation), extent of visible precipitation [1, 4]: 1
- Visual assessment (50° C. incubation), extent of visible precipitation [1, 5]: 1
- Visual appearance after incubation [1, 7]: remained as a clear liquid
- Visual assessment (50° C. incubation), extent of visible precipitation [1, 6]: 1
Molecule: OC[C@@H](O)[C@@H](O)[C@H](O)[C@H](O)CO [Mannitol (250 mM), Mannitol]

- Visual appearance after incubation [1, 7]: remained as a clear liquid
Molecule: OC[C@H]1O[C@H](O[C@H]2O[C@H](CO)[C@@H](O)[C@H](O)[C@H]2O)[C@H](O)[C@@H](O)[C@@H]1O [trehalose (250 and 500 mM), trehalose]

Further lines, the molecule ahead of its results:

Molecule: CC(O)CO (stereo not drawn) [1,2-propanediol]
- Onset of aggregation and gel formation compared with mannitol ([1]; 50° C.): much earlier onset of aggregation and gel formation

Molecule: C[C@H](CCC(=O)NCCC[N+](C)(C)CCCS(=O)(=O)[O-])[C@H]1CC[C@H]2[C@@H]3[C@H](O)C[C@@H]4C[C@H](O)CC[C@]4(C)[C@H]3C[C@H](O)[C@]12C [CHAPS]
- Size of the native glucagon peak (RP-HPLC) [2]: < 10%

Molecule: CCCCCCCCCCCCCCCC[N+](C)(C)C.[Br-] [Cetrimide, cetyl trimethylammonium bromide]
- Changes in the native form of glucagon (RP-HPLC) [2]: no significant changes

Molecule: Oc1ccccc1 [phenol]
- Gel formation and/or aggregation on incubation [3]: delay aggregation and gel formation considerably farther

Molecule: Benzalkonium chloride
- Changes in the native form of glucagon (RP-HPLC) [2]: no significant changes

Molecule: Sodium deoxycholate
- Changes in the native form of glucagon (RP-HPLC) [2]: no significant changes
- Gel formation of dissolved glucagon ([2]; prepared at pH 7.5, incubation at room temperature): tendency to form gels

Molecule: TWEEN ® 20
- Size of the native glucagon peak (RP-HPLC) [2]: about 60%
